In ChEMBL document CHEMBL3046126, “Synthesis and Herbicidal Activity of New Oxazolidinedione Derivatives” (J Pestic Sci, 1999):

Key:
[1] = tested on: Lindernia procumbens; test: Pre-emergence herbicidal activity against Lindernia procumbens assessed as phytotoxic weed control visual ratings at 2.5 kg ai/ha measured after 14 days post treatment under flooded conditions; format: functional
[2] = tested on: Echinochloa oryzicola; test: Pre-emergence herbicidal activity against Echinochloa oryzicola assessed as phytotoxic weed control visual ratings at 2.5 kg ai/ha measured after 14 days post treatment under flooded conditions; format: functional
[3] = tested on: Pontederia vaginalis; test: Pre-emergence herbicidal activity against Monochoria vaginalis assessed as phytotoxic weed control visual ratings at 2.5 kg ai/ha measured after 14 days post treatment under flooded conditions; format: functional
[4] = tested on: Cyperus difformis; test: Pre-emergence herbicidal activity against Cyperus difformis assessed as phytotoxic weed control visual ratings at 2.5 kg ai/ha measured after 14 days post treatment under flooded conditions; format: functional
[5] = tested on: Schoenoplectiella juncoides; test: Pre-emergence herbicidal activity against Schoenoplectiella juncoides assessed as phytotoxic weed control visual ratings at 2.5 kg ai/ha measured after 14 days post treatment under flooded conditions; format: functional
[6] = tested on: Rotala indica; test: Pre-emergence herbicidal activity against Rotala indica assessed as phytotoxic weed control visual ratings at 2.5 kg ai/ha measured after 14 days post treatment under flooded conditions; format: functional
[7] = tested on: Elatine triandra; test: Pre-emergence herbicidal activity against Elatine triandra assessed as phytotoxic weed control visual ratings at 2.5 kg ai/ha measured after 14 days post treatment under flooded conditions; format: functional
[8] = tested on: Oryza sativa; test: Pre-emergence phytotoxicity against Oryza sativa cv. Koshihikari (rice) assessed as phytotoxic crop injury visual ratings at 2.5 kg ai/ha measured after 14 days post treatment under flooded conditions; format: organism-based; conditions: in vivo, other, 336 h
[9] = tested on: Schoenoplectiella juncoides; test: Pre-emergence herbicidal activity against Schoenoplectiella juncoides assessed as phytotoxic weed control visual ratings at 1.25 kg ai/ha measured after 14 days post treatment under flooded conditions; format: functional
[10] = tested on: Rotala indica; test: Pre-emergence herbicidal activity against Rotala indica assessed as phytotoxic weed control visual ratings at 1.25 kg ai/ha measured after 14 days post treatment under flooded conditions; format: functional
[11] = tested on: Echinochloa oryzicola; test: Pre-emergence herbicidal activity against Echinochloa oryzicola assessed as phytotoxic weed control visual ratings at 1.25 kg ai/ha measured after 14 days post treatment under flooded conditions; format: functional
[12] = tested on: Oryza sativa; test: Pre-emergence phytotoxicity against Oryza sativa cv. Koshihikari (rice) assessed as phytotoxic crop injury visual ratings at 1.25 kg ai/ha measured after 14 days post treatment under flooded conditions; format: organism-based; conditions: in vivo, other, 336 h
[13] = tested on: Cyperus difformis; test: Pre-emergence herbicidal activity against Cyperus difformis assessed as phytotoxic weed control visual ratings at 1.25 kg ai/ha measured after 14 days post treatment under flooded conditions; format: functional
[14] = tested on: Pontederia vaginalis; test: Pre-emergence herbicidal activity against Monochoria vaginalis assessed as phytotoxic weed control visual ratings at 1.25 kg ai/ha measured after 14 days post treatment under flooded conditions; format: functional
[15] = tested on: Elatine triandra; test: Pre-emergence herbicidal activity against Elatine triandra assessed as phytotoxic weed control visual ratings at 1.25 kg ai/ha measured after 14 days post treatment under flooded conditions; format: functional
[16] = tested on: Lindernia procumbens; test: Pre-emergence herbicidal activity against Lindernia procumbens assessed as phytotoxic weed control visual ratings at 1.25 kg ai/ha measured after 14 days post treatment under flooded conditions; format: functional
[17] = tested on: Elatine triandra; test: Pre-emergence herbicidal activity against Elatine triandra assessed as phytotoxic weed control visual ratings at 25 g ai/ha measured after 14 days post treatment under flooded conditions; format: functional
[18] = tested on: Amaranthus viridis; test: Pre-emergence herbicidal activity against Amaranthus viridis assessed as phytotoxic weed control visual ratings at 500 g ai/ha measured after 14 days post treatment under upland field conditions; format: functional
[19] = tested on: Echinochloa oryzicola; test: Pre-emergence herbicidal activity against Echinochloa oryzicola assessed as phytotoxic weed control visual ratings at 25 g ai/ha measured after 14 days post treatment under flooded conditions; format: functional
[20] = tested on: Schoenoplectiella juncoides; test: Pre-emergence herbicidal activity against Schoenoplectiella juncoides assessed as phytotoxic weed control visual ratings at 25 g ai/ha measured after 14 days post treatment under flooded conditions; format: functional
[21] = tested on: Digitaria ciliaris; test: Pre-emergence herbicidal activity against Digitaria ciliaris assessed as phytotoxic weed control visual ratings at 500 g ai/ha measured after 14 days post treatment under upland field conditions; format: functional
[22] = tested on: Oryza sativa; test: Pre-emergence phytotoxicity against Oryza sativa cv. Koshihikari (rice) assessed as phytotoxic crop injury visual ratings at 25 g ai/ha measured after 14 days post treatment under flooded conditions; format: organism-based; conditions: in vivo, other, 336 h
[23] = tested on: Zea mays; test: Pre-emergence phytotoxicity against Zea mays (maize) assessed as phytotoxic crop injury visual ratings at 500 g ai/ha measured after 14 days post treatment under upland field conditions; format: organism-based; conditions: in vivo, other, 336 h
[24] = tested on: Cyperus difformis; test: Pre-emergence herbicidal activity against Cyperus difformis assessed as phytotoxic weed control visual ratings at 25 g ai/ha measured after 14 days post treatment under flooded conditions; format: functional
[25] = tested on: Pontederia vaginalis; test: Pre-emergence herbicidal activity against Monochoria vaginalis assessed as phytotoxic weed control visual ratings at 25 g ai/ha measured after 14 days post treatment under flooded conditions; format: functional
[26] = tested on: Echinochloa crus-galli; test: Pre-emergence herbicidal activity against Echinochloa crus-galli (barnyard grass) assessed as phytotoxic weed control visual ratings at 500 g ai/ha measured after 14 days post treatment under upland field conditions; format: functional
[27] = tested on: Lindernia procumbens; test: Pre-emergence herbicidal activity against Lindernia procumbens assessed as phytotoxic weed control visual ratings at 25 g ai/ha measured after 14 days post treatment under flooded conditions; format: functional
[28] = tested on: Chenopodium album; test: Pre-emergence herbicidal activity against Chenopodium album assessed as phytotoxic weed control visual ratings at 500 g ai/ha measured after 14 days post treatment under upland field conditions; format: functional
[29] = tested on: Rotala indica; test: Pre-emergence herbicidal activity against Rotala indica assessed as phytotoxic weed control visual ratings at 25 g ai/ha measured after 14 days post treatment under flooded conditions; format: functional
[30] = tested on: Oryza sativa; test: Post-emergence phytotoxicity against Oryza sativa cv. Koshihikari (rice) assessed as phytotoxic crop injury visual ratings measured after 14 days post treatment; format: organism-based; conditions: in vivo, 336 h
[31] = Selectivity index, ratio of ED10 for Oryza sativa to ED90 for Echinochloa oryzicola by pre-emergence exposure method
[32] = tested on: Oryza sativa; test: Pre-emergence phytotoxicity against Oryza sativa cv. Koshihikari (rice) assessed as phytotoxic crop injury visual ratings measured after 14 days post treatment; format: organism-based; conditions: in vivo, 336 h
[33] = Selectivity index, ratio of ED10 for Oryza sativa to ED90 for Echinochloa oryzicola by post-emergence exposure method

SMILES	Phytotoxicity [1]	Phytotoxicity [2]	Phytotoxicity [3]	Phytotoxicity [4]	Phytotoxicity [5]	Phytotoxicity [6]	Phytotoxicity [7]	Phytotoxicity [8]	Phytotoxicity [9]	Phytotoxicity [10]	Phytotoxicity [11]	Phytotoxicity [12]	Phytotoxicity [13]	Phytotoxicity [14]	Phytotoxicity [15]	Phytotoxicity [16]	Phytotoxicity [17]	Phytotoxicity [18]	Phytotoxicity [22]	Phytotoxicity [23]	further results
CC(C)=C1OC(=O)N(c2cc(Cl)cc(Cl)c2)C1=O	50%	0%	50%	30%	30%	50%	50%	0%	–	–	–	–	–	–	–	–	–	–	–	–	–
CCC(CC)=C1OC(=O)N(c2ccc(Cl)cc2)C1=O	–	–	–	–	–	–	–	–	30%	100%	10%	0%	100%	90%	100%	100%	–	–	–	–	–
C=C(C)C1(C)OC(=O)N(c2cc(Cl)cc(Cl)c2)C1=O (stereo not drawn)	60%	80%	30%	30%	20%	60%	60%	0%	–	–	–	–	–	–	–	–	–	–	–	–	–
CC(C)=C1OC(=O)N(c2ccc(F)cc2)C1=O	–	–	–	–	–	–	–	–	0%	40%	10%	0%	100%	40%	40%	40%	–	–	–	–	–
CC/C(C)=C1/OC(=O)N(c2ccc(F)cc2)C1=O	–	–	–	–	–	–	–	–	60%	100%	10%	0%	100%	100%	100%	100%	–	–	–	–	–
O=C1OC(=C2CCCCC2)C(=O)N1c1ccc(Cl)cc1	–	–	–	–	–	–	–	–	80%	100%	10%	0%	100%	10%	100%	100%	–	–	–	–	–
CC(C)=C1OC(=O)N(c2cc(O)c(Cl)cc2F)C1=O	–	–	–	–	–	–	–	–	–	–	–	–	–	–	–	–	10%	0%	0%	0%	Phytotoxicity [19]: 0%; Phytotoxicity [20]: 0%; Phytotoxicity [21]: 0%; Phytotoxicity [24]: 30%; Phytotoxicity [25]: 10%; Phytotoxicity [26]: 0%; Phytotoxicity [27]: 10%; Phytotoxicity [28]: 10%; Phytotoxicity [29]: 10%
CCCC/C(C)=C1/OC(=O)N(c2ccc(Cl)cc2)C1=O	–	–	–	–	–	–	–	–	100%	100%	40%	10%	100%	100%	100%	100%	–	–	–	–	–
CCC(C)Oc1cc(N2C(=O)OC(=C(C)C)C2=O)c(F)cc1Cl (stereo not drawn)	–	–	–	–	–	–	–	–	–	–	–	–	–	–	–	–	100%	90%	10%	0%	Phytotoxicity [19]: 80%; Phytotoxicity [20]: 100%; Phytotoxicity [21]: 80%; Phytotoxicity [24]: 100%; Phytotoxicity [25]: 100%; Phytotoxicity [26]: 20%; Phytotoxicity [27]: 100%; Phytotoxicity [28]: 10%; Phytotoxicity [29]: 100%
CC/C(C)=C1/OC(=O)N(c2ccc(Cl)cc2)C1=O	–	–	–	–	–	–	–	–	100%	100%	100%	20%	100%	100%	100%	100%	–	–	–	–	–
CC(C)=C1OC(=O)N(c2c(Cl)cc(Cl)cc2Cl)C1=O	100%	30%	100%	100%	20%	100%	100%	0%	–	–	–	–	–	–	–	–	–	–	–	–	–
CC(C)=C1OC(=O)N(c2cccc(Cl)c2)C1=O	30%	0%	30%	30%	10%	30%	30%	0%	–	–	–	–	–	–	–	–	–	–	–	–	–
COc1cc(N2C(=O)OC(=C(C)C)C2=O)c(F)cc1Cl	–	–	–	–	–	–	–	–	–	–	–	–	–	–	–	–	100%	80%	0%	30%	Phytotoxicity [19]: 30%; Phytotoxicity [20]: 10%; Phytotoxicity [21]: 90%; Phytotoxicity [24]: 100%; Phytotoxicity [25]: 80%; Phytotoxicity [26]: 60%; Phytotoxicity [27]: 100%; Phytotoxicity [28]: 90%; Phytotoxicity [29]: 100%
CCCCCCOc1cc(N2C(=O)OC(=C(C)C)C2=O)c(F)cc1Cl	–	–	–	–	–	–	–	–	–	–	–	–	–	–	–	–	70%	100%	0%	0%	Phytotoxicity [19]: 10%; Phytotoxicity [20]: 60%; Phytotoxicity [21]: 10%; Phytotoxicity [24]: 80%; Phytotoxicity [25]: 90%; Phytotoxicity [26]: 10%; Phytotoxicity [27]: 70%; Phytotoxicity [28]: 50%; Phytotoxicity [29]: 70%
CCC(CC)Oc1cc(N2C(=O)OC(=C(C)C)C2=O)c(F)cc1Cl	–	–	–	–	–	–	–	–	–	–	–	–	–	–	–	–	100%	90%	0%	0%	Phytotoxicity [19]: 60%; Phytotoxicity [20]: 90%; Phytotoxicity [21]: 60%; Phytotoxicity [24]: 100%; Phytotoxicity [25]: 100%; Phytotoxicity [26]: 30%; Phytotoxicity [27]: 100%; Phytotoxicity [28]: 90%; Phytotoxicity [29]: 100%
CCCCCC/C(C)=C1/OC(=O)N(c2ccc(Cl)cc2)C1=O	–	–	–	–	–	–	–	–	10%	4%	10%	0%	80%	50%	4%	4%	–	–	–	–	–
CCOc1cc(N2C(=O)OC(=C(C)C)C2=O)c(F)cc1Cl	–	–	–	–	–	–	–	–	–	–	–	–	–	–	–	–	100%	100%	10%	10%	Phytotoxicity [19]: 30%; Phytotoxicity [20]: 60%; Phytotoxicity [21]: 90%; Phytotoxicity [24]: 100%; Phytotoxicity [25]: 100%; Phytotoxicity [26]: 50%; Phytotoxicity [27]: 100%; Phytotoxicity [28]: 90%; Phytotoxicity [29]: 100%
C=CC1(C)OC(=O)N(c2cc(Cl)cc(Cl)c2)C1=O (stereo not drawn) [VINCLOZOLIN]	50%	90%	50%	50%	30%	50%	50%	0%	–	–	–	–	–	–	–	–	–	–	–	–	–
C#CC(C)Oc1cc(N2C(=O)OC(=C(C)C)C2=O)c(F)cc1Cl (stereo not drawn)	–	–	–	–	–	–	–	–	–	–	–	–	–	–	–	–	–	–	20%	10%	ED10 [30]: 12.5 gAi/ha; Selectivity Index [31]: 4; ED10 [32]: 6.25 gAi/ha; Selectivity Index [33]: 2
CC(C)=C1OC(=O)N(c2ccccc2Cl)C1=O	0%	0%	0%	0%	0%	0%	0%	0%	–	–	–	–	–	–	–	–	–	–	–	–	–
